Measured values: patent publication US20230220001A1, “METHOD FOR SYNTHESIS OF THIOETHER-[…]” ([…] RESEARCH GMBH, priority 2020, published 2023)
Starred links: 1 amine or outer side, 2 acyl side, 3 side chain; linkers in the order of their positions; H or OH if unused. Positions of bridges follow the written chain, without caps; N, C: chain ends. Non-standard residues stand in square brackets, D forms with d. Residues, ends and D or L forms follow the SMILES beside them. Trp(2-yl) = O=C([C@H](Cc1c([*:3])[nH]c2ccccc12)N[*:1])[*:2]; Ile(4R-OH,5-OH) = C[C@H]([C@H](N)C(=O)O)[C@@H](O)CO; Pro(4,4-F2) = O=C(O)[C@@H]1CC(F)(F)CN1; Hyp = O=C(O)[C@@H]1C[C@@H](O)CN1; Tle = CC(C)(C)[C@H](N)C(=O)O; Aze = O=C(O)[C@@H]1CCN1; Ac3c = NC1(C(=O)O)CC1; Aib = CC(C)(N)C(=O)O; Sar = CNCC(=O)O

Experiments:
OATP1B3 = test: Cell viability assay (BrdU incorporation) on HEK293-OATP1B3 cells overexpressing OATP1B3; format: cell-based; settings: human, HEK293-OATP1B3 cells (overexpress OATP1B3), 96 h drug exposure, read-out: Cytotoxicity on HEK-OATP1B3 cells EC50
Protocol: (§1) Cytotoxicity of compounds of the invention was assessed using an RNA Polymerase II inhibition assay and by assessing cytotoxicity in a cell viability assay on HEK cells and HEK-OATP1 B3 cells, the results of which are depicted in Table 6.
(§2) Cell Viability Assay (HEK and HEK-OATP1B3 Cells)
(§3) The in vitro toxicity of the inventive compounds was determined in Human embryonic kidney HEK293 cells and in HEK293-OATP1B3 cells that overexpress the organic anion-transporting polypeptide […] (OATP1B3) to assess whether OATP1 B3 mediates active transport of amanitin analogues into the cell. Wildtype HEK293 (ATCC, Manassas, Va.) and HEK293-OATP1 B3 cells (see: Pahl et al., Cytotoxic Payloads for Antibody-Drug Conjugates In: Amatoxins as RNA Polymerase II Inhibiting Antibody-Drug Conjugate (ADC) Payloads CHAPTER 19, The Royal Society of Chemistry 2019, ISBN: 978-1-78801-077-1, or e.g. Bowman et al. Drug Metab Dispos 48:18-24, January 2020) were incubated with compound 7f (α-amanitin) or the compounds as disclosed in Table 6. Cytotoxicity was determined by a BrdU assay. HEK293 and HEK-OATP1B3 cells were plated at 2.5×10^3 cells/well in a 1:1 mixture of Ham's F12 with DMEM containing 10% charcoal-stripped FCS onto poly-D-lysine-coated 96-well plates and grown for 24 hours. Subsequently, cells were incubated with amanitin derivatives at 8 different concentrations (1×10^−6 M to 1.28×10^−11 M, serial 1:5 dilutions). Following 96 h of drug exposure, cell viability was determined by a BrdU incorporation assay (Cell Proliferation ELISA, BrdU, Roche) and chemiluminescence was measured using a FLUOstar Optima plate reader (BMG LABtech). Data analysis was performed with GraphPad Prism 9.0 (GraphPad Software, Inc., La Jolla, Calif.) software to plot curve fits.

RNA Polymerase II = biological target: T1, RNA Polymerase II (Homo sapiens, UniProt P24928); test: RNA Polymerase II assay (HeLaScribe nuclear extract in vitro transcription system, RT-PCR quantification of mRNA); format: biochemical; settings: for residual RNAP II activity at highest concentration tested: highest concentration tested (range up to 1×10^−6 M)
T1 construct: HeLaScribe® Nuclear extract in vitro transcription system (Promega, #E3092); host or cells: HeLa nuclear extract (purchased)
Protocol: as §1
The in vitro RNA Pol II assay was done using a HeLaScribe® Nuclear extract in vitro transcription system (Promega, #E3092) was used to compare the inhibitory effect of amanitin analogues on RNA Pol at seven concentrations from 6.4×10^−11 M to 1×10^−6 M (serial 1:5 dilutions). As positive control, template run-off transcripts from a CMV immediate early promoter were used (Promega, #E3092). Reverse transcription was followed by real time-PCR for the quantification of the mRNA product. RNA detection was performed using a QuantiFast Probe RT-PCR Plus Kit (Qiagen). The PCR product was monitored by determination of fluorescence on a Real Time PCR CFX Connect Real Time System (Bio-Rad Laboratories Inc.). α-amanitin, analogues and untreated control were each analyzed in triplicates. Negative control, positive control and no target control were analyzed in duplicates. The ACT method was used to calculate the inhibitory effect of the test item on transcription normalized to the untreated control.

[1] = Cell viability assay (BrdU incorporation) on HEK293 cells; format: cell-based; settings: human, wildtype HEK293 cells, 96 h drug exposure, read-out: Cytotoxicity on HEK-293 cells EC50
Protocol: as §1, §2, §3

[2] = slow acting toxin; T. Wieland 1986; cited from earlier work

SMILES | EC50 at 96 h (OATP1B3) [nM] | IC50 (RNA Polymerase II) [nM] | EC50 at 96 h [1] [nM] | LD50 [2] [µg/kg] | residual RNAP II activity at highest concentration tested (RNA Polymerase II) [%]
CC[C@H](C)[C@@H]1NC(=O)CNC(=O)[C@@H]2Cc3c([nH]c4ccccc34)SC[C@H](NC(=O)CNC1=O)C(=O)N[C@@H](CC(N)=O)C(=O)N1C[C@H](O)C[C@H]1C(=O)N[C@@H]([C@@H](C)[C@@H](O)CO)C(=O)N2 [Compound 7d] (cyclo(CN[Hyp][Ile(4R-OH,5-OH)][Trp(2-yl)]GIG); thioether 1-5) | 0.23 | 6.8 | 81 | – | –
CC[C@H](C)[C@@H]1NC(=O)CNC(=O)[C@@H]2Cc3c([nH]c4cc(O)ccc34)[S@+]([O-])C[C@H](NC(=O)CNC1=O)C(=O)N[C@@H](CC(N)=O)C(=O)N1C[C@H](O)C[C@H]1C(=O)N[C@@H]([C@@H](C)[C@@H](O)CO)C(=O)N2 [Compound 7f, Alpha-amanitin, reference compound] | 5.2 | 2.7 | 210 | 50 to 100 | –
CC[C@H](C)[C@@H]1NC(=O)CNC(=O)[C@@H]2Cc3c([nH]c4ccccc34)SC[C@H](NC(=O)[C@H]3CCCN3C1=O)C(=O)N[C@@H](CC(N)=O)C(=O)N1C[C@H](O)C[C@H]1C(=O)N[C@@H]([C@@H](C)[C@@H](O)CO)C(=O)N2 [Compound 7i] (cyclo(CN[Hyp][Ile(4R-OH,5-OH)][Trp(2-yl)]GI[dP]); thioether 1-5) | 210 | 12 | > 1000 | – | 20
CC[C@H](C)[C@@H]1NC(=O)CNC(=O)[C@@H]2Cc3c([nH]c4ccccc34)SC[C@H](NC(=O)CN(C)C1=O)C(=O)N[C@@H](CC(N)=O)C(=O)N1C[C@H](O)C[C@H]1C(=O)N[C@@H]([C@@H](C)[C@@H](O)CO)C(=O)N2 [Compound 7l] (cyclo(CN[Hyp][Ile(4R-OH,5-OH)][Trp(2-yl)]GI[Sar]); thioether 1-5) | 29 | 15 | > 1000 | – | 10
CC[C@H](C)[C@@H]1NC(=O)CNC(=O)[C@@H]2Cc3c([nH]c4ccccc34)SC[C@H](NC(=O)C(C)(C)NC1=O)C(=O)N[C@@H](CC(N)=O)C(=O)N1C[C@H](O)C[C@H]1C(=O)N[C@@H]([C@@H](C)[C@@H](O)CO)C(=O)N2 [Compound 7m] (cyclo([Aib]CN[Hyp][Ile(4R-OH,5-OH)][Trp(2-yl)]GI); thioether 2-6) | 120 | 71 | > 1000 | – | 15
CC[C@H](C)[C@@H]1NC(=O)CNC(=O)[C@@H]2Cc3c([nH]c4ccccc34)SC[C@H](NC(=O)CNC1=O)C(=O)N[C@@H](CC(N)=O)C(=O)N1CC[C@H]1C(=O)N[C@@H]([C@@H](C)[C@@H](O)CO)C(=O)N2 [Compound 7n] (cyclo([Aze][Ile(4R-OH,5-OH)][Trp(2-yl)]GIGCN); thioether 3-7) | > 100 | 160 | > 1000 | – | 40
CC[C@H](C)[C@@H]1NC(=O)CNC(=O)[C@@H]2Cc3c([nH]c4ccccc34)SC[C@H](NC(=O)[C@@H](C)NC1=O)C(=O)N[C@@H](CC(N)=O)C(=O)N1C[C@H](O)C[C@H]1C(=O)N[C@@H]([C@@H](C)[C@@H](O)CO)C(=O)N2 [Compound 7o] (cyclo(CN[Hyp][Ile(4R-OH,5-OH)][Trp(2-yl)]GI[dA]); thioether 1-5) | 28 | 1.4 | > 1000 | – | –
C[C@H]([C@@H]1NC(=O)[C@@H]2C[C@@H](O)CN2C(=O)[C@H](CC(N)=O)NC(=O)[C@@H]2CSc3[nH]c4ccccc4c3C[C@H](NC1=O)C(=O)NCC(=O)N[C@@H](C(C)(C)C)C(=O)NCC(=O)N2)[C@@H](O)CO [Compound 7p] (cyclo(CN[Hyp][Ile(4R-OH,5-OH)][Trp(2-yl)]G[Tle]G); thioether 1-5) | 16 | 25 | > 1000 | – | –
CC[C@H](C)[C@@H]1NC(=O)CNC(=O)[C@@H]2Cc3c([nH]c4ccccc34)SC[C@H](NC(=O)CNC1=O)C(=O)N[C@@H](CC(N)=O)C(=O)N1CC(F)(F)C[C@H]1C(=O)N[C@@H]([C@@H](C)[C@@H](O)CO)C(=O)N2 [Compound 7q] (cyclo(CN[Pro(4,4-F2)][Ile(4R-OH,5-OH)][Trp(2-yl)]GIG); thioether 1-5) | 49 | 110 | > 1000 | – | 10
CC[C@H](C)[C@@H]1NC(=O)CNC(=O)[C@@H]2Cc3c([nH]c4ccccc34)SC[C@H](NC(=O)C3(CC3)NC1=O)C(=O)N[C@@H](CC(N)=O)C(=O)N1C[C@H](O)C[C@H]1C(=O)N[C@@H]([C@@H](C)[C@@H](O)CO)C(=O)N2 [Compound 7r] (cyclo([Ac3c]CN[Hyp][Ile(4R-OH,5-OH)][Trp(2-yl)]GI); thioether 2-6) | 10 | 26 | > 1000 | – | –
